Laboratory results reported in US9776983B2, “Method for manufacturing fluoropolymers” (SOLVAY SOLEXIS S.p.A., priority 2008, dated 2017).
Several values for one entry are separate records, joined by “and”; a condition that tells them apart may be missing. Equal values may be shown once.

Columns and labels:
[1] = pKa of acid (D); type: physicochemical; conditions: free acid (D)
Procedure: An aqueous solution composed of KMnO4 (238 mmol, 37.6 g), NaOH (238 mmol, 9.52 g) in 200 ml of distilled H2O was introduced in a 3-necked glass round-bottomed flask equipped with a magnetic stirrer, a dropping funnel, a thermometer and a tap water refrigerating column. The flask was heated to 80° C. with vigorous stirring and then 238 mmol; 50 g of product obtained from step 1a was slowly dropped into the basic oxidizing solution. Immediate exothermic release (+15° C.) was observed together with formation of MnO2 precipitate. After completion of the addition, solution was further stirred at 80° C. for 40 min. Crude reaction mixture was then cooled to room temperature, filtered, acidified to pH=1 with concentrated HCl (37% w/w) and extracted several times with CH2Cl2. The organic layer was dried over MgSO4, filtered and then the CH2Cl2 is evaporated.

[2] = Plasma levels and pharmacokinetic parameters after single oral (gavage) administration; type: in vivo, male Wistar (SPF-bred) rats; conditions: for elimination from blood compared with APFO: after single oral administration, C/Cmax versus time (FIG. 5); for time of maximal plasma concentration (tmax): single oral, Va, VIIa about 70 μmol/kg, XIII 73 umol/kg
Procedure: (§1) Compound Va and VIIa (Xa═NH4) were administered by single oral route (gavage) three male Wistar (SPF-bred) rats at dose levels of about 70 μmol/kg of dry ammonium salt, corresponding to the 21.2 mg/kg for compound Va and 19.9 mg/kg for compound VIIa. Blood sampling occurred 15 minutes before administration, at 4, 8, 12, 24, 72 and 168 hours after administration.
(§2) Compound XIII was dosed by single oral administration to 3 male Wistar rats at the dose of 73 umol/kg corresponding to 26.06 mg/kg. Blood sampling occurred at 15 minutes before administration, at 4, 8, 12, 24, 72 and 168 hours after administration. Urine samples were obtained at time intervals 0-12, 12-24, 24-72, 72-96, 96-168 hours after dosing. Plasma and urine concentration of XIII were determined by a validated analytical method.
Results of plasma concentrations for compound VIIa (Xa═NH4), Va (Xa═NH4), XIII (Xa═NH4) and APFO as a function of time are sketched in FIG. 5. This graph depicts ratio C/Cmax for compound Va (Xa═NH4) (●) compound VIIa (Xa═NH4) (◯), for compound XIII (Xa═NH4) (□) and APFO (▴), with C=instantaneous plasma concentration and Cmax=maximum plasma concentration, as a function of time (in hours).

[3] = Urine levels and urinary recovery after single oral administration; type: in vivo, male Wistar rats
Procedure: as §1, §2

[4] = Oral acute toxicity; type: in vivo
Procedure: (§3) An organic solution composed of (D) (127 mmol; 30.6 g) and 200 ml of CH2Cl2 was introduced in a 2-necked glass round-bottomed flask equipped with a magnetic stirrer, a tap water refrigerating column and a bubbling tube. The mixture was cooled to 0° C. with vigorous stirring and a large excess of gaseous NH3 was bubbled through the organic mixture. Bubbling of NH3 (g) was pursued until completion of the precipitation of the ammonium salt. Crude mixture was filtered; solid was dried in a vacuum oven at 40° C. under reduced pressure (20 mmHg) for 2 hours. A flaky white solid is obtained. Isolated yield of compound (E) (VIIa, with Xa being NH4)=100%. […] FIG. 2 depicts the ^19F-NMR spectrum of compound (E).

[5] = Thermogravimetric analysis (TGA) in air; type: physicochemical; conditions: ammonium salt
Procedure: as §3
Perfluorinated ester (G) was hydrolyzed in water at 0° C., yielding corresponding acid with quantitative yield. Evolved HF was neutralized with 1.5 mol eq. of KF, yielding solid KHF2, which was separated by filtration. After removal of solvent, the free acid (b.p.=160° C.) and CF3COOH (b.p.=72° C.) were separated by fractional distillation. Gaseous NH3 was then bubbled in a CH2Cl2 (200 ml) solution of the acid; ammonium salt (H) (formula Va, with Xa═NH4) was then recovered with a yield of 75% moles (with respect to alcohol intermediate (B)). […] FIG. 3 depicts the ^19F-NMR spectrum recorded on compound (H).
Acid (XIII, Xa═H) was solubilised in CH2Cl2 (200 ml); gaseous NH3 was then bubbled in said solution; ammonium salt (XIII, Xa═NH4) was then recovered with a yield of 75% moles (with respect to alcohol intermediate (L)). […] FIG. 7 depicts the ^19F-NMR spectrum recorded on ammonium salt (XIII, Xa═NH4).

[6] = plasma, male rats, single oral gavage, about 70 μmol/kg, individual values of the three animals, listed as VIIa (Xa = NH4)

## O=C(O)C1(F)OC(F)(F)OC1OC(F)(F)F (stereo not shown) [(D)]
[1]
  pKa: 2.8

## N.O=C(O)C1(F)OC(F)(F)OC1OC(F)(F)F (stereo not shown) [Compound VIIa]
[2]
  elimination from blood compared with APFO: significantly faster elimination
[2]; plasma, male rats, single oral gavage, about 70 μmol/kg, individual values of the three animals
  tmax: 4, 4, 4 h
[2]; [6]
  AUC0-t: 135.608 µg·h/mL and 47.07 µg·h/mL and 114.562 µg·h/mL
  AUCinf.: 47.137 µg·h/mL and 115.916 µg·h/mL and 137.788 µg·h/mL
  Cmax: 11258 ng/mL and 14767 ng/mL and 18878 ng/mL
  t1/2, z: 4.8 h and 8.0 h and 8.9 h
[2]; single oral gavage, about 70 μmol/kg, male Wistar rats
  reliable plasma half life: 8.0 to 8.9 h
[2]; male Wistar rats
  time of maximal plasma concentration (tmax): 4 h
[3]; rats, single oral administration
  urinary recovery at 168 hours after treatment: 97-107%
[3]; rats, single oral administration, individual values
  urinary half lives: 9 h and 13 h and 10 h
[4]
  LD50: exceed 2000 mg/kg
[5]
  TGA temperature at weight decrease of 10%: 148 °C
  TGA temperature at weight decrease of 50%: 182 °C

## N.O=C(O)C(F)(F)OC1(F)OC(F)(F)OC1(F)OC(F)(F)F (stereo not shown) [Compound XIII]
[2]
  elimination from blood compared with APFO: significantly faster elimination
[2]; male Wistar rats
  time of maximal plasma concentration (tmax): 4 h
[3]; 3 male Wistar rats, single oral, 73 umol/kg (26.06 mg/kg)
  mean urinary recovery in 168 hours after treatment: around 82%
[5]
  TGA temperature at weight decrease of 10%: 159 °C
  TGA temperature at weight decrease of 50%: 191 °C
